{"source": "paper PMC1241435", "about": "(Environmental Health Perspectives, 2003)", "key": {"[1]": {"target": "T1, CYP 1A1 (Homo sapiens, UniProt P04798)", "T1 sequence (P04798 1-512)": "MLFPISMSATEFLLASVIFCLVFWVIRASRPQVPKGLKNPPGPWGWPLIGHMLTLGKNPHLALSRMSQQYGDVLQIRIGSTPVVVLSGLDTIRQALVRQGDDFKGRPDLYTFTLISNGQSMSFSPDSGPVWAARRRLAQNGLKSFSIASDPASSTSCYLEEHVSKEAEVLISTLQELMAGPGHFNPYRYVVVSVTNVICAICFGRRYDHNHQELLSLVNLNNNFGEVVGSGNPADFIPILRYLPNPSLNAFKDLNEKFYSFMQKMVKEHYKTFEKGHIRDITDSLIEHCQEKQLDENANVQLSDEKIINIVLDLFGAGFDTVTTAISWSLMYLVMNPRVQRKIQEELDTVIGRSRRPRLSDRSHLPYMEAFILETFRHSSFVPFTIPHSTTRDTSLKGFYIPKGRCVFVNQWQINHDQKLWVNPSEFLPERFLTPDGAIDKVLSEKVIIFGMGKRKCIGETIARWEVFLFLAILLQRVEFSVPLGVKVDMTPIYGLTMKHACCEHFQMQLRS", "assay": "sulfoxide formation by microsomes of cells expressing the recombinant enzyme", "format": "cell-based"}, "[2]": {"target": "T2, FMO I (Homo sapiens, UniProt Q01740)", "T2 sequence (Q01740 2-532)": "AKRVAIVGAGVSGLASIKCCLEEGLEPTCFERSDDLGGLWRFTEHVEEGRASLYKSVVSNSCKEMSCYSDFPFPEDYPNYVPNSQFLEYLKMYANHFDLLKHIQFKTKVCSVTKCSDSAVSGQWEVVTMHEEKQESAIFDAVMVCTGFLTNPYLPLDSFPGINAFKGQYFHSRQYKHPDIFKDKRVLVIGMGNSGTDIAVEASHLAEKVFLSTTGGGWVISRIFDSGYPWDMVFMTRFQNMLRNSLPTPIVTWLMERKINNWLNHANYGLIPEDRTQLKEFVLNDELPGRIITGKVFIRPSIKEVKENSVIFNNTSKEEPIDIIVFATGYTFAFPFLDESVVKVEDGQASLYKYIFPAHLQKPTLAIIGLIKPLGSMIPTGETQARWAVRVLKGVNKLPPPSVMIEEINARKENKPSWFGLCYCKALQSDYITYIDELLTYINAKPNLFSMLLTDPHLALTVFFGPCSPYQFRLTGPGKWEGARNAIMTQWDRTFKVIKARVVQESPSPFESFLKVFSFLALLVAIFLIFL", "assay": "sulfoxide formation by microsomes of cells expressing the recombinant enzyme", "format": "cell-based"}}}
{"smiles": "COP(=S)(OC)Oc1ccc(SC)c(C)c1", "note": "[fenthion, O,O-dimethyl-O-(4-methylmercapto)-3-methylphenylthio-phosphate]", "values": [{"measurement": "sulfoxide formation by microsomes of cells expressing the recombinant enzyme", "setting": "[1]", "result": 3.6, "unit": "nmol/min/mg protein"}, {"measurement": "sulfoxide formation by microsomes of cells expressing the recombinant enzyme", "setting": "[2]", "result": 62.4, "unit": "nmol/min/mg protein"}]}
